From BindingDB's records for doi:10.1021/jm990135j (Taisho Pharmaceutical, 1999)
Structures can show the parent of a compound that is named as a salt.

target: not listed separately; assay: In vitro binding affinity at Sigma opioid receptors on guinea pig brain membranes by [3H]3-PPP displacement.

| SMILES | IC50 [nM] |
| --- | --- |
| CCCCC(Cc1ccc(OC)c(OCCc2ccccc2)c1)N(CCC)CCC (centres undefined) [[1-(4-Methoxy-3-phenethyloxy-benzyl)-pentyl]-dipropyl-amine] | 29 |
| CCCCCCC(N)Cc1ccc(OC)c(OCCc2ccccc2)c1 (centres undefined) [1-(4-Methoxy-3-phenethyloxy-benzyl)-heptylamine] | 170 |
| CCCN(CCC)C(C)Cc1ccc(OC)c(OCCc2ccccc2)c1 (centres undefined) [[2-(4-Methoxy-3-phenethyloxy-phenyl)-1-methyl-ethyl]-dipropyl-amine] | 12 |
| CCCCCCC(Cc1ccc(OC)c(OCCc2ccccc2)c1)N(CCC)CCC (centres undefined) [[1-(4-Methoxy-3-phenethyloxy-benzyl)-heptyl]-dipropyl-amine] | 150 |
| COc1ccc(CC(C)N)cc1OCCc1ccccc1 (centres undefined) [2-(4-Methoxy-3-phenethyloxy-phenyl)-1-methyl-ethylamine; hydrochloride] | > 1000 |
| CCCCCCCC(N)Cc1ccc(OC)c(OCCc2ccccc2)c1 (centres undefined) [1-(4-Methoxy-3-phenethyloxy-benzyl)-octylamine] | 420 |
| CCCCCCC(Cc1ccc(OC)c(OCCc2ccccc2)c1)NCCC (centres undefined) [[1-(4-Methoxy-3-phenethyloxy-benzyl)-heptyl]-propyl-amine] | 9 |
| CCC(N)Cc1ccc(OC)c(OCCc2ccccc2)c1 (centres undefined) [1-(4-Methoxy-3-phenethyloxy-benzyl)-propylamine; hydrochloride] | > 1000 |
| CCCCCCCC(Cc1ccc(OC)c(OCCc2ccccc2)c1)N(CCC)CCC (centres undefined) [[1-(4-Methoxy-3-phenethyloxy-benzyl)-octyl]-dipropyl-amine] | 230 |
| CCCC(Cc1ccc(OC)c(OCCc2ccccc2)c1)N(CCC)CCC (centres undefined) [[1-(4-Methoxy-3-phenethyloxy-benzyl)-butyl]-dipropyl-amine] | 9.5 |
| CCCNC(C)Cc1ccc(OC)c(OCCc2ccccc2)c1 (centres undefined) [[2-(4-Methoxy-3-phenethyloxy-phenyl)-1-methyl-ethyl]-propyl-amine; hydrochloride] | 10 |
| CCCCCC(Cc1ccc(OC)c(OCCc2ccccc2)c1)NCCC (centres undefined) [[1-(4-Methoxy-3-phenethyloxy-benzyl)-hexyl]-propyl-amine; hydrochloride] | 1.5 |
| CCCCCC(N)Cc1ccc(OC)c(OCCc2ccccc2)c1 (centres undefined) [1-(4-Methoxy-3-phenethyloxy-benzyl)-hexylamine; hydrochloride] | 110 |
| CCCCCCCCC(Cc1ccc(OC)c(OCCc2ccccc2)c1)NCCC (centres undefined) [[1-(4-Methoxy-3-phenethyloxy-benzyl)-nonyl]-propyl-amine] | 170 |
| CCCNC(CC)Cc1ccc(OC)c(OCCc2ccccc2)c1 (centres undefined) [[1-(4-Methoxy-3-phenethyloxy-benzyl)-propyl]-propyl-amine] | 8 |
| CCCCCCCCC(N)Cc1ccc(OC)c(OCCc2ccccc2)c1 (centres undefined) [1-(4-Methoxy-3-phenethyloxy-benzyl)-nonylamine] | > 1000 |
| CCCCCCCCC(Cc1ccc(OC)c(OCCc2ccccc2)c1)N(CCC)CCC (centres undefined) [[1-(4-Methoxy-3-phenethyloxy-benzyl)-nonyl]-dipropyl-amine] | > 1000 |
| CCCCC(N)Cc1ccc(OC)c(OCCc2ccccc2)c1 (centres undefined) [1-(4-Methoxy-3-phenethyloxy-benzyl)-pentylamine] | 160 |

target: Sigma-2 receptor (guinea pig); assay: TIn vitro binding affinity at Sigma opioid receptor type 2 on guinea pig brain membranes by [3H]DTG displacement in the presence of […].

| SMILES | IC50 [nM] |
| --- | --- |
| CCCCCCC(Cc1ccc(OC)c(OCCc2ccccc2)c1)NCCC (centres undefined) [[1-(4-Methoxy-3-phenethyloxy-benzyl)-heptyl]-propyl-amine] | 230 |
| CCCC(Cc1ccc(OC)c(OCCc2ccccc2)c1)N(CCC)CCC (centres undefined) [[1-(4-Methoxy-3-phenethyloxy-benzyl)-butyl]-dipropyl-amine] | 420 |
| CCCCCC(Cc1ccc(OC)c(OCCc2ccccc2)c1)NCCC (centres undefined) [[1-(4-Methoxy-3-phenethyloxy-benzyl)-hexyl]-propyl-amine; hydrochloride] | 110 |
| CCCNC(CC)Cc1ccc(OC)c(OCCc2ccccc2)c1 (centres undefined) [[1-(4-Methoxy-3-phenethyloxy-benzyl)-propyl]-propyl-amine] | 330 |

target: Sigma non-opioid intracellular receptor 1 (Cavia porcellus) (UniProt Q60492); assay: In vitro binding affinity at Sigma opioid receptors on guinea pig brain membranes by [3H]-3-PPP displacement.
Sequence (Q60492 whole entry, looked up): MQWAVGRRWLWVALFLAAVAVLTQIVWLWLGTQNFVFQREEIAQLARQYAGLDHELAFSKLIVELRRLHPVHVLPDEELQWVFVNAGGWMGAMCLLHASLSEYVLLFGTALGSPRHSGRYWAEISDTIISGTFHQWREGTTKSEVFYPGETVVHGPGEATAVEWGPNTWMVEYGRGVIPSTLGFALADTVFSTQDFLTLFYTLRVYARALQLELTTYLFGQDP

| SMILES | IC50 [nM] |
| --- | --- |
| CCCC(N)(CCC)Cc1ccc(OC)c(OCCc2ccccc2)c1 [1-(4-Methoxy-3-phenethyloxy-benzyl)-1-propyl-butylamine; compound with (E)-but-2-enedioic acid] | > 1000 |
| CCCCCC(Cc1ccc(OC)c(OCCc2ccccc2)c1)N(CCC)CCC (centres undefined) [[1-(4-Methoxy-3-phenethyloxy-benzyl)-hexyl]-dipropyl-amine; hydrochloride] | 30 |
